Source: patent US11858905B1, “Cathepsin L inhibitors” (priority 2023, dated 2024)

What was measured:
human CatL = human CatL (Homo sapiens (Human), UniProt P07711); assay: Human Cathepsin L (CatL) enzymatic assay; type: biochemical; details: CatL 0.05 nM, substrate 500 nM, pH 5.5; read-out: Enzymatic inhibition IC50
Procedure: Human Cathepsin L (CatL) Enzymatic Assay
60 μL of the compounds were added to 384-well dilution plate. The compound solution was diluted for 1:3 in succession in DMSO for each column for 10 pts. 0.05 μL diluted compound solution was added in each row to 384 assay plates (Corning 4514) using Echo (LABCYTE 655), each column containing 2 replicates. 5 μL working solution of human CatL enzyme (Abcam #ab81780) was added to 384-well assay plate, centrifuge 1000 rpm for 1 min. The mixture was incubated at […] for 15 min, then add 5 μL working solution of CatL substrate (Genscript #C7360HB140_5) to initiate the reaction (CatL: 0.05 nM, Substrate: 500 nM). Incubate at […] for 30 min. Reading Ex370 nm and Em460 nm fluorescence signals with BMG CLARIO Star Plusaucu. Percent inhibition for each compound was calculated and IC50 (half maximal inhibitory concentration) was fitted from non-linear regression by XLfit 5.5.0.

SARS-CoV-2 PsVs = assay: microbe, parasite or virus in culture; type: cell-based; details: for activity at 0.5 µM / activity at 5 µM: Severe acute respiratory syndrome coronavirus 2, Vero C1008, 24 h; for activity at 0.5 µM: read-out: % Infection rate at 500 nM; for activity at 5 µM: read-out: % Infection rate at 5 uM
RSV = RSV infected mice; cited from earlier work

Sequence of human CatL (P07711 whole entry, looked up): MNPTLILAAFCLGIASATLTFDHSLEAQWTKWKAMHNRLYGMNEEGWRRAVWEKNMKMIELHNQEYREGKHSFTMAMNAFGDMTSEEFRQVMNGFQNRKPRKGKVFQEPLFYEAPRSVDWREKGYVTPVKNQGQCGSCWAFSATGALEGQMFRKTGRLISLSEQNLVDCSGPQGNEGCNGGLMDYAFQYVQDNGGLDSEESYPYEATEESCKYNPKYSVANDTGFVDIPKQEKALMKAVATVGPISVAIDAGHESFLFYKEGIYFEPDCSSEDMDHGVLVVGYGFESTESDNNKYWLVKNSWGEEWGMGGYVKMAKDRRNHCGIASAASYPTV

SMILES	IC50 (human CatL) [nM]	protection of cells from pseudovirus infection at 500 nM (SARS-CoV-2 PsVs)	activity at 0.5 µM (SARS-CoV-2 PsVs) [%]	activity at 5 µM (SARS-CoV-2 PsVs) [%]	airway hyperresponsiveness (RSV)	viral clearance (RSV)
COCCN1CC=C(c2ccc3nc(C[C@H](NC(=O)c4cc(C(C)(C)C)nn4C4CC4)C(=O)NCC#N)oc3c2)CC1 [Compound 45, (2S)-2-[(5-tert-butyl-2-cyclopropylpyrazol-3-yl)formamido]-N-(cyanomethyl)-3-{6-[1-(2-methoxyethyl)-3,6-dihydro-2H-pyridin-4-yl]-1,3-benzoxazol-2-yl}propanamide]	2.5	nearly full protection	7	0.02		
COCCN1CC=C(c2ccc3nc(C[C@H](NC(=O)c4cc(C5(C)CC5)nn4C4CC4)C(=O)NC4(C#N)CC4)oc3c2)CC1 [Compound 46, (2S)—N-(1-cyanocyclopropyl)-2-{[2-cyclopropyl-5-(1-methylcyclopropyl)pyrazol-3-yl]formamido}-3-{6-[1-(2-methoxyethyl)-3,6-dihydro-2H-pyridin-4-yl]-1,3-benzoxazol-2-yl}propanamide]	1	nearly full protection	7	0.08		
CC1(c2cc(C(=O)N[C@@H](Cc3nc4ccc(-c5ccnc(C(F)F)c5)cc4o3)C(=O)NC3(C#N)CC3)n(C3CC3)n2)CC1 [Compound 47, (S)—N-(1-((1-cyanocyclopropyl)amino)-3-(6-(2-(difluoromethyl)pyridin-4-yl)benzo[d]oxazol-2-yl)-1-oxopropan-2-yl)-1-cyclopropyl-3-(1-methylcyclopropyl)-1H-pyrazole-5-carboxamide]	6.6		56	15.9		
CC1(c2cc(C(=O)N[C@@H](Cc3nc4ccc(-c5ccnc(C6CC6)c5)cc4o3)C(=O)NC3(C#N)CC3)n(C3CC3)n2)CC1 [Compound 48, (S)—N-(1-((1-cyanocyclopropyl)amino)-3-(6-(2-cyclopropylpyridin-4-yl)benzo[d]oxazol-2-yl)-1-oxopropan-2-yl)-1-cyclopropyl-3-(1-methylcyclopropyl)-1H-pyrazole-5-carboxamide]	3.5		63	22.4		
CC(C)C[C@H](NC(=O)[C@H]1O[C@@H]1C(=O)O)C(=O)NCCCCN=C(N)N [Compound E64, E64]					prevented airway hyperresponsiveness	enhanced viral clearance
NC(=O)c1ncn([C@@H]2O[C@H](CO)[C@@H](O)[C@H]2O)n1 [ribavirin]					prevented airway hyperresponsiveness	enhanced viral clearance
